Source: US20230183237A1, “COMPETITIVE AND NONCOMPETITIVE INHIBITORS OF THE MUSCARINIC ACETYLCHOLINE RECEPTOR M5” (Vanderbilt University, priority 2020, published 2023)
Like-named read-outs stand apart in the source and are kept apart here.

Target: T1, hM5 (Homo sapiens, UniProt P08912)
T1 construct: expressed in transfected cells
T1 sequence (P08912 1-532): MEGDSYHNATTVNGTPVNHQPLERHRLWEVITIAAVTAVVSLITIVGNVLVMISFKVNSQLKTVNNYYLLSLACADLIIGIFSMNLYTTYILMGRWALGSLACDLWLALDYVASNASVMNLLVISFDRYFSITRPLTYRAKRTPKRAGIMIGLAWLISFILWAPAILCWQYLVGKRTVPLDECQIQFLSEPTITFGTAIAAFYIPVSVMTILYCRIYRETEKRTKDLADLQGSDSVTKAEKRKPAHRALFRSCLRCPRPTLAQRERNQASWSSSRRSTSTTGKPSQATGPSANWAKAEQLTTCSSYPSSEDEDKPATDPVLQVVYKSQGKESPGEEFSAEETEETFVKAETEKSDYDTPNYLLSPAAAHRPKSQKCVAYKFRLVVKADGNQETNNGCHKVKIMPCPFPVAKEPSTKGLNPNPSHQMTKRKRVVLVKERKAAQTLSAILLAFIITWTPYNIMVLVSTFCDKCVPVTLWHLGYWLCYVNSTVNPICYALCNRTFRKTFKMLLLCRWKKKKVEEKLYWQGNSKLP
Assay: Calcium mobilization concentration-response (IC50 vs EC80 acetylcholine), CHO hM5
Type: cell-based
Conditions: CELL LINE hM5, read-out: IC50
Summary of the method: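 IC50 values derive from percent maximal acetylcholine response after an EC80 ACh addition, measured as kinetic calcium fluorescence (static ratio, max−min). Test compounds were added 140 s before agonist. Cells: stable hM5-CHO in HEPES-buffered HBSS with 2.5 mM probenecid, pH 7.4; ≥3 independent triplicate determinations.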

[1] = calcium mobilization, EC80 acetylcholine addition

Row | Structure (SMILES) | IC50 [1] [nM] | IC50 (vs EC80 acetylcholine) [nM]
1 | Cc1cc2ncnn2cc1C1(F)CCN(S(=O)(=O)c2cnn(C)c2C(F)(F)F)CC1 [Compound 423, 6-(4-fluoro-1-((1-methyl-5-(trifluoromethyl)-1H-pyrazol-4-yl)sulfonyl)piperidin-4-yl)-7-methyl-[1,2,4]triazolo[1,5-a]pyridine] |  | 912
2 | O=S(=O)(c1ccc2ncsc2c1)N1CCC(c2cn3ncnc3cc2C(F)(F)F)CC1 [Compound 111, 6-((4-(7-(trifluoromethyl)-[1,2,4]triazolo[1,5-a]pyridin-6-yl)piperidin-1-yl)sulfonyl)benzo[d]thiazole] | 1800 | 
3 | Cc1cc2nncn2cc1C1CCN(S(=O)(=O)c2cc3c(cc2F)OCC3)CC1 [Compound 51, 6-(1-((6-fluoro-2,3-dihydrobenzofuran-5-yl)sulfonyl)piperidin-4-yl)-7-methyl-[1,2,4]triazolo[4,3-a]pyridine] | > 10000 | 
4 | Cc1cc2ncnn2nc1C1CCN(S(=O)(=O)c2cc3c(cc2F)OCC3)CC1 [Compound 181, 6-(1-((6-fluoro-2,3-dihydrobenzofuran-5-yl)sulfonyl)piperidin-4-yl)-7-methyl-[1,2,4]triazolo[1,5-b]pyridazine] | > 10000 | 
5 | Cc1c(C2CCN(S(=O)(=O)c3cnc4sccn34)CC2)cn2ncnc2c1F [Compound 533, 5-((4-(8-fluoro-7-methyl-[1,2,4]triazolo[1,5-a]pyridin-6-yl)piperidin-1-yl)sulfonyl)imidazo[2,1-b]thiazole] |  | 9
6 | Cc1ncc(S(=O)(=O)N2CCC(c3cnc(N(C)C)cc3C)CC2)o1 [Compound 564, N,N,4-trimethyl-5-(1-((2-methyloxazol-5-yl)sulfonyl)piperidin-4-yl)pyridin-2-amine] |  | 94
7 | CCc1cc2ncnn2cc1C1CCN(S(=O)(=O)c2c(Cl)nc3sccn23)CC1 [Compound 336, 6-chloro-5-((4-(7-ethyl-[1,2,4]triazolo[1,5-a]pyridin-6-yl)piperidin-1-yl)sulfonyl)imidazo[2,1-b]thiazole] | 106 | 
8 | Cc1cc(C#N)cnc1C1CCN(S(=O)(=O)c2cnn(C)c2C)CC1 [Compound 217, 6-(1-((1,5-Dimethyl-1H-pyrazol-4-yl)sulfonyl)piperidin-4-yl)-5-methylnicotinonitrile] | > 10000 | 
9 | O=S(=O)(c1ccc2c(c1)CCO2)N1CCC(c2cn3ccnc3cn2)CC1 [Compound 27, 6-(1-((2,3-dihydrobenzofuran-5-yl)sulfonyl)piperidin-4-yl)imidazo[1,2-a]pyrazine] | > 10000 | 
10 | [2H]C1([2H])CC(c2cn3ncnc3cc2Cl)CC([2H])([2H])N1S(=O)(=O)c1nncn1C [Compound 580, 7-chloro-6-(1-((4-methyl-4H-1,2,4-triazol-3-yl)sulfonyl)piperidin-4-yl-2,2,6,6-d4)-[1,2,4]triazolo[1,5-a]pyridine] |  | 98
11 | O=S(=O)(c1cnn2c1CCC2)N1CCC(c2ccc3ncnn3c2)CC1 [Compound 285, 6-(1-((5,6-dihydro-4H-pyrrolo[1,2-b]pyrazol-3-yl)sulfonyl)piperidin-4-yl)-[1,2,4]triazolo[1,5-a]pyridine] | 51 | 
12 | Cc1ncc(S(=O)(=O)N2CCC(F)(c3cn4ncnc4cc3C)CC2)s1 [Compound 245, 5-((4-fluoro-4-(7-methyl-[1,2,4]triazolo[1,5-a]pyridin-6-yl)piperidin-1-yl)sulfonyl)-2-methylthiazole] | > 10000 | 
13 | O=S(=O)(c1ccc2c(c1)CCO2)N1CCC(c2cc3ccncc3s2)CC1 [Compound 13, 2-(1-((2,3-dihydrobenzofuran-5-yl)sulfonyl)piperidin-4-yl)thieno[2,3-c]pyridine] | > 10000 | 
14 | O=S(=O)(c1cnn2c1CCC2)N1CCC(c2ccncc2)CC1 [Compound 366, 3-((4-(pyridin-4-yl)piperidin-1-yl)sulfonyl)-5,6-dihydro-4H-pyrrolo[1,2-b]pyrazole] | > 10000 | 
15 | O=S(=O)(c1ccc2c(c1)CCO2)N1CCC(c2nccs2)CC1 [Compound 98, 2-(1-((2,3-dihydrobenzofuran-5-yl)sulfonyl)piperidin-4-yl)thiazole] | > 10000 | 
16 | Cc1c(C2CCN(S(=O)(=O)c3cnc(Cl)s3)CC2)cn2ncnc2c1F [Compound 534, 2-chloro-5-((4-(8-fluoro-7-methyl-[1,2,4]triazolo[1,5-a]pyridin-6-yl)piperidin-1-yl)sulfonyl)thiazole] |  | 1650
17 | Cn1ncc(S(=O)(=O)N2CC=C(c3c4ccccc4nn3C)CC2)c1Cl [Compound 489, 3-(1-((5-chloro-1-methyl-1H-pyrazol-4-yl)sulfonyl)-1,2,3,6-tetrahydropyridin-4-yl)-2-methyl-2H-indazole] |  | 1290
18 | Cc1cc2ncnn2cc1C1CCN(S(=O)(=O)c2ccc3c(c2)CCO3)C1 (stereo not drawn) [Compound 126, 6-(1-((2,3-dihydrobenzofuran-5-yl)sulfonyl)pyrrolidin-3-yl)-7-methyl-[1,2,4]triazolo[1,5-a]pyridine] | > 10000 | 

More lines, now with the values ahead:

Row | IC50 [1] [nM] | IC50 (vs EC80 acetylcholine) [nM] | Structure (SMILES)
19 | 3800 |  | Cc1nc(C(F)(F)F)c(S(=O)(=O)N2CCC(c3cn4ncnc4cc3C)CC2)s1 [Compound 129, 2-methyl-5-((4-(7-methyl-[1,2,4]triazolo[1,5-a]pyridin-6-yl)piperidin-1-yl)sulfonyl)-4-(trifluoromethyl)thiazole]
20 |  | 15 | O=S(=O)(c1cnn2ccccc12)N1CCC(c2cn3ncnc3cc2Cl)CC1 [Compound 544, 7-chloro-6-(1-(pyrazolo[1,5-a]pyridin-3-ylsulfonyl)piperidin-4-yl)-[1,2,4]triazolo[1,5-a]pyridine]
21 | 6 |  | Cc1cc2ncnn2cc1C1CCN(S(=O)(=O)c2cnn3c2CCCC3)CC1 [Compound 238, 7-methyl-6-(1-((4,5,6,7-tetrahydropyrazolo[1,5-a]pyridin-3-yl)sulfonyl)piperidin-4-yl)-[1,2,4]triazolo[1,5-a]pyridine]
22 | 195 |  | Cc1cc2ncnn2cc1C1CCN(S(=O)(=O)c2cc3c(cc2F)OCC3C)CC1 (stereo not drawn) [Compound 103, 6-(1-((6-fluoro-3-methyl-2,3-dihydrobenzofuran-5-yl)sulfonyl)piperidin-4-yl)-7-methyl-[1,2,4]triazolo[5-a]pyridine]
23 | 1400 |  | Cc1nn(C)c(C(F)(F)F)c1S(=O)(=O)N1CCC(c2cn3ncnc3cc2C(F)(F)F)CC1 [Compound 281, 6-(1-((1,3-dimethyl-5-(trifluoromethyl)-1H-pyrazol-4-yl)sulfonyl)piperidin-4-yl)-7-(trifluoromethyl)-[1,2,4]triazolo[1,5-a]pyridine]
24 | 33 |  | O=S(=O)(c1cnn2c1CCCC2)N1CCC(c2cn3ncnc3cc2F)CC1 [Compound 237, 7-fluoro-6-(1-((4,5,6,7-tetrahydropyrazolo[1,5-a]pyridin-3-yl)sulfonyl)piperidin-4-yl)-[1,2,4]triazolo[1,5-a]pyridine]
25 | 407 |  | Cc1ncc(S(=O)(=O)N2CCC(c3cn4ncnc4cc3F)CC2)n1C [Compound 234, 6-(1-((1,2-dimethyl-1H-imidazol-5-yl)sulfonyl)piperidin-4-yl)-7-fluoro-[1,24]triazolo[1,5-a]pyridine]
26 |  | 3070 | Cc1ncc(S(=O)(=O)N2CCC(c3cn4ncnc4cc3F)CC2)o1 [Compound 507, 5-((4-(7-fluoro-[1,2,4]triazolo[1,5-a]pyridin-6-yl)piperidin-1-yl)sulfonyl)-2-methyloxazole]
27 | 38 |  | Cc1cc2ncnn2cc1C1CCN(S(=O)(=O)c2c(C)nn(C)c2C(F)(F)F)CC1 [Compound 220, 6-(1-((1,3-dimethyl-5-(trifluoromethyl)-1H-pyrazol-4-yl)sulfonyl)piperidin-4-yl)-7-methyl-[1,2,4]triazolo[1,5-a]pyridine]
28 | > 10000 |  | CCn1cc(S(=O)(=O)N2CCC(c3cn4ncnc4cc3C)CC2)c(C2CC2)n1 [Compound 134, 6-(1-((3-cyclopropyl-1-ethyl-1H-pyrazol-4-yl)sulfonyl)piperidin-4-yl)-7-methyl-[1,2,4]triazolo[1,5-a]pyridine]
29 |  | 5060 | Cn1ncc(S(=O)(=O)N2CCC(c3cn4ncnc4cc3F)CC2)c1CC#N [Compound 403, 2-(4-((4-(7-fluoro-[1,2,4]triazolo[1,5-a]pyridin-6-yl)piperidin-1-yl)sulfonyl)-1-methyl-1H-pyrazol-5-yl)acetonitrile]
30 |  | > 10000 | Cc1cc2ccnn2cc1C1CCN(S(=O)(=O)c2cnn(C)c2CC#N)CC1 [Compound 454, 2-(1-methyl-4-((4-(5-methylpyrazolo[1,5-a]pyridin-6-yl)piperidin-1-yl)sulfonyl)-1H-pyrazol-5-yl)acetonitrile]
31 | > 10000 |  | Cc1cc2ncnn2cc1C1(O)CCN(S(=O)(=O)c2cnn(C)c2C)CC1 [Compound 308, 1-((1,5-Dimethyl-1H-pyrazol-4-yl)sulfonyl)-4-(7-methyl-[1,2,4]triazolo[1,5-a]pyridin-6-yl)piperidin-4-ol]
32 | 20 |  | Cc1cc2ncnn2cc1[C@@H]1CCN(S(=O)(=O)c2cnn(C)c2C)C[C@H]1F (racemic) [Compound 174, (rac)-6-(trans-1-((1,5-Dimethyl-1H-pyrazol-4-yl)sulfonyl)-3-fluoropiperidin-4-yl)-7-methyl-[1,2,4]triazolo[1,5-a]pyridine]
33 |  | 244 | Cc1cc2ncnn2cc1C1CCN(S(=O)(=O)c2cnn(C)c2OC(C)C)CC1 [Compound 603, 6-(1-((5-isopropoxy-1-methyl-1H-pyrazol-4-yl)sulfonyl)piperidin-4-yl)-7-methyl-[1,2,4]triazolo[1,5-a]pyridine]
